Each structure is given as a SMILES string. Calls of active or inactive are those of the source.

Assay [1] relates to A-375. As to the kind of experiment: MITF: Counter assay: A375 proliferation Measured in Cell-Based System Using Plate Reader - 2084-03_Inhibitor_Dose_DryPowder_Activity. [Related pubchem assays (depositor defined):AID488944]. The conditions noted are these: Homo sapiens. Format: functional.
Assay [2] has as its system A-375. As to the kind of experiment: A375 melanoma cell viability reduction, dose response, counter-screen for MITF modulator project, cherry-pick samples, set 2 (AID 540335). Format: functional, cell-based. The conditions noted are these: Homo sapiens.
In assay [3] the target is T1, Nucleotide-binding oligomerization domain-containing protein 1 (Homo sapiens, UniProt Q9Y239).
T1 sequence (Q9Y239 whole entry): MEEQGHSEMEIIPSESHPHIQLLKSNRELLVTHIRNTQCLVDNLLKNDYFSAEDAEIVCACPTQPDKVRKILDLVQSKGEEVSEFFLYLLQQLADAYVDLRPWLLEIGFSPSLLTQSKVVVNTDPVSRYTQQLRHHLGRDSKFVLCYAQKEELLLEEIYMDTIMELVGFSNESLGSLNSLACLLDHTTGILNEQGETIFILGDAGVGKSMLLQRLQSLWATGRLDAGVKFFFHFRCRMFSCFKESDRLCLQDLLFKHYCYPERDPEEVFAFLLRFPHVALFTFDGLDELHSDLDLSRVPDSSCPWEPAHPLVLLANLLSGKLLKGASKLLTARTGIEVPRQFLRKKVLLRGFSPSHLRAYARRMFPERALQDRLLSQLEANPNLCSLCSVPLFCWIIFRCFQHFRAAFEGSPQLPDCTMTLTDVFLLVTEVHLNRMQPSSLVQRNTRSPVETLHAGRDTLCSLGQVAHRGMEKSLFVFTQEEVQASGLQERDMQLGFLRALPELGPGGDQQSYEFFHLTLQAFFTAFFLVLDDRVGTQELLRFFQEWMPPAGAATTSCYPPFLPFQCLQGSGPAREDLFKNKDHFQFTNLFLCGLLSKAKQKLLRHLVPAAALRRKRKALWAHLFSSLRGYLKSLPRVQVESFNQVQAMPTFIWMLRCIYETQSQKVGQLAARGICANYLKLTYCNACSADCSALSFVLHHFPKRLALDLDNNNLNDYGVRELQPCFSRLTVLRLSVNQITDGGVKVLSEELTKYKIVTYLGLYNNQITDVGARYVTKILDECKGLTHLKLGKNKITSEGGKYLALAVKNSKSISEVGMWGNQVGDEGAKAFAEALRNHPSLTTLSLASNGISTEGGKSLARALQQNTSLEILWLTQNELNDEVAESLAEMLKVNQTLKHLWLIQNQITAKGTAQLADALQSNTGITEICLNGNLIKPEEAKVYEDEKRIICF
Kind of assay: SAR analysis of compounds that inhibit NOD1 - Set 3. [Related pubchem assays (depositor defined):AID1566, AID1575, AID1578, AID1849, AID1852, AID2333, AID2335, AID2466]. The assay is classed as functional.

The target of another assay is Tumor necrosis factor (Homo sapiens, UniProt P01375). As to the kind of experiment: TNFa-triggered NF-kB activation inhibitors, SAR follow-up, cell-based, set 3 (AID 2801). Format: functional.
Assay [4] relates to HEK293. As to the kind of experiment: SAR analysis of compounds that are cytotoxic to HEK293 - Set 3. [Related pubchem assays (depositor defined):AID1575, AID1578, AID1848, AID1849, AID2001, AID2333, AID2334, AID2335, AID2337, AID2469]. The assay is classed as functional, cell-based. As to conditions: Homo sapiens.
For assay [5], the target named is T2, Nucleotide-binding oligomerization domain-containing protein 2 (Homo sapiens, UniProt Q9HC29). Kind of assay: NOD2 signaling inhibitors, analog potency, SAR follow-up, cell-based, set 3 (AID 2799). The assay is classed as functional.
The subject of assay [6] is HEK293. Kind of assay: NOD1 signaling inhibitors, primary screen, cell-based, luminescence, uHTS (AID 1578). The conditions noted are these: Homo sapiens. The assay is classed as functional.
For assay [7], the system named is HEK293. As to the kind of experiment: cells. Format: functional, cell-based. The conditions noted are these: Homo sapiens.
Assay [8] deals with HEK293. Kind of assay: cells. Format: functional, cell-based. As to conditions: Homo sapiens. This is another data set of the same source.
For assay [9], the target named is T2, Nucleotide-binding oligomerization domain-containing protein 2. Kind of assay: NOD2 signaling inhibitors, cell-based, luminescence, uHTS, HEK293 (AID 1566). The assay is classed as functional.
Assay [10] has as its system HEK293. Kind of assay: NOD2 signaling inhibitors in MDP-stimulated cells, cell-based, uHTS, luminescence (AID 2001). Format: functional. The conditions noted are these: Homo sapiens.
Assay [11] has as its system HEK293. Kind of assay: cells. The assay is classed as functional, cell-based. As to conditions: Homo sapiens. This is another data set of the same source.
A further assay has as its target Nonstructural protein 1 (Influenza A virus, UniProt Q194T2). The assay is classed as functional, Influenza A virus (A/California/07/2009(H1N1)).
Assay [12] concerns the target Lysine-specific demethylase 4C (Homo sapiens, UniProt Q9H3R0). Kind of assay: GASC-1 (JMJD2C) histone demethylase inhibitors, dose response, biochemical, DELFIA europium, cherry-picked samples (AID 488835). Format: functional.
The nature of assay [13]: A Cell Based Secondary Assay To Explore Cytotoxicity of Compounds that Sensitize Mycobacterium Tuberculosis to Beta-Lactam Antibiotics. Format: functional.
In assay [14] the target is T3, Microphthalmia-associated transcription factor (Homo sapiens, UniProt O75030).
T3 sequence (O75030 whole entry): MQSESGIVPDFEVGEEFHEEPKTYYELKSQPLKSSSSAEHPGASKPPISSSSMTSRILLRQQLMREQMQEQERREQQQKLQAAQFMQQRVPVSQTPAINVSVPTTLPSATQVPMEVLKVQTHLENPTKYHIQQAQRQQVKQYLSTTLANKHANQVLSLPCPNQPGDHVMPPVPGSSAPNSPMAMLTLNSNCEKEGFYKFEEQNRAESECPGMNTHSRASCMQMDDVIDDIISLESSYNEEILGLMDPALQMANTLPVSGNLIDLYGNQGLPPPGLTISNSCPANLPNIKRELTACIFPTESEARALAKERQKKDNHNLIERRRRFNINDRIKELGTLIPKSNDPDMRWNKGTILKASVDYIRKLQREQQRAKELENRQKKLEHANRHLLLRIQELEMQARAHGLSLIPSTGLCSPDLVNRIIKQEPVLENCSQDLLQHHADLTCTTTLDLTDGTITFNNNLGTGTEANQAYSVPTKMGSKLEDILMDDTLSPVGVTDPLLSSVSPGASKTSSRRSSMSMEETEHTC
As to the kind of experiment: TRPM1 promoter luciferase signal decrease, dose response, MITF inhibitor project, cell-based, SK-MEL-5, cherry-picked, set 3 (AID 493073).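 Further: SK-MEL-5 melanoma cells with luciferase driven by the MITF target TRPM1 promoter.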 Format: functional.

Assay [15] can be described thus: Shn3 3'UTR reporter inhibitors, dose response, cell-based, Clone20 osteoblasts, firefly luciferase, cherry-picked (AID 624132).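 Further: firefly luciferase luminescence from reporter carrying the Shn3 3'UTR in osteoblasts.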 The assay is classed as functional.
The nature of assay [16]: HepG2 cell cytotoxicity, dose response, cytotoxicity control for Shn3 inhibitor project, CellTiter-Glo, cherry-picked (AID 624134). Format: functional, cell-based.
Assay [17] in a line: control 3'UTR Renilla luciferase suppression, dose response, counter-screen for Shn3 inhibitor project, cell-based, Clone20-Shn3RL, cherry-picked (AID 624133). The assay is classed as functional.
In assay [18] the test system is HEK293. As to the kind of experiment: cells. The conditions noted are these: Homo sapiens.
Assay [19] concerns HEK293. As to the kind of experiment: cells. As to conditions: Homo sapiens. This is another data set of the same source.

T2 sequence (Q9HC29 whole entry, the tested form may be a part): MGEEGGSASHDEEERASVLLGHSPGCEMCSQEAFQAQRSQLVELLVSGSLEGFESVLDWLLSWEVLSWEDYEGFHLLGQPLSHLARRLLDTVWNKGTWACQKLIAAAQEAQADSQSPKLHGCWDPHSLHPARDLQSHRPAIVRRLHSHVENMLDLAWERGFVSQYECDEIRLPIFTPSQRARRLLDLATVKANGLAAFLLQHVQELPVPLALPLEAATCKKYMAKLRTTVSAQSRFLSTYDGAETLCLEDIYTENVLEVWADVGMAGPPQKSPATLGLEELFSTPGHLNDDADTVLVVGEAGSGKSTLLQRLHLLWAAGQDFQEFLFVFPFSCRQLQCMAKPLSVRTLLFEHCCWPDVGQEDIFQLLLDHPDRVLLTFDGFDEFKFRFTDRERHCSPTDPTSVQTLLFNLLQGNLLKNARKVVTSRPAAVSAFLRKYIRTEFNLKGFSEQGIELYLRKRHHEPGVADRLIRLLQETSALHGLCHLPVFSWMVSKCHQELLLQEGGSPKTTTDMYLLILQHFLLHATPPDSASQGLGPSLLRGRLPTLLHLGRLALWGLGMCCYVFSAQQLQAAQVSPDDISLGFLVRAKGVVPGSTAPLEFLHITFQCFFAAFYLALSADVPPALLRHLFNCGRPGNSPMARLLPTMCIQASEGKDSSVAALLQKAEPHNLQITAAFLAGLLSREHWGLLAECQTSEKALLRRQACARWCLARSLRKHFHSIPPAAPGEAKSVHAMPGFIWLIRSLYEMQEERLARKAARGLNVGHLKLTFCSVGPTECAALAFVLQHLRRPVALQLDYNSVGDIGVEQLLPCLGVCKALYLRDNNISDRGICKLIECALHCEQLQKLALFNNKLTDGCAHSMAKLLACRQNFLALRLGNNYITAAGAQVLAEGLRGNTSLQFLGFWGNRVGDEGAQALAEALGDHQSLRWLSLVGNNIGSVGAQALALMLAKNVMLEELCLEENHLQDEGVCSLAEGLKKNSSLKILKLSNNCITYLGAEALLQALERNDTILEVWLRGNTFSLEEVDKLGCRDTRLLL
Chain of Tumor necrosis factor (P01375 whole entry): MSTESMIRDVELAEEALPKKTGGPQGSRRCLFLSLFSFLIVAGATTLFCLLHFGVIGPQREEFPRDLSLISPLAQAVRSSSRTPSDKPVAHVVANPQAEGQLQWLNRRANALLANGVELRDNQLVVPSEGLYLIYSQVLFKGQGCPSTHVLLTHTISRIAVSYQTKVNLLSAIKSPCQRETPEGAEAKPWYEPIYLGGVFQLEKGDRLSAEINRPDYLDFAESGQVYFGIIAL
Chain of Nonstructural protein 1 (Q194T2 whole entry): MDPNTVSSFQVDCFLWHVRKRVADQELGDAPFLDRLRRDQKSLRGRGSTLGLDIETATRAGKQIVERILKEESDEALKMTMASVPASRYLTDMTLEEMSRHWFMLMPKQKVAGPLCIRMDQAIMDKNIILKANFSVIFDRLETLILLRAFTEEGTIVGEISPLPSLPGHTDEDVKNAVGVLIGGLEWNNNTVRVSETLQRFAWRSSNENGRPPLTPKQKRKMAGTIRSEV
Chain of Lysine-specific demethylase 4C (Q9H3R0 whole entry): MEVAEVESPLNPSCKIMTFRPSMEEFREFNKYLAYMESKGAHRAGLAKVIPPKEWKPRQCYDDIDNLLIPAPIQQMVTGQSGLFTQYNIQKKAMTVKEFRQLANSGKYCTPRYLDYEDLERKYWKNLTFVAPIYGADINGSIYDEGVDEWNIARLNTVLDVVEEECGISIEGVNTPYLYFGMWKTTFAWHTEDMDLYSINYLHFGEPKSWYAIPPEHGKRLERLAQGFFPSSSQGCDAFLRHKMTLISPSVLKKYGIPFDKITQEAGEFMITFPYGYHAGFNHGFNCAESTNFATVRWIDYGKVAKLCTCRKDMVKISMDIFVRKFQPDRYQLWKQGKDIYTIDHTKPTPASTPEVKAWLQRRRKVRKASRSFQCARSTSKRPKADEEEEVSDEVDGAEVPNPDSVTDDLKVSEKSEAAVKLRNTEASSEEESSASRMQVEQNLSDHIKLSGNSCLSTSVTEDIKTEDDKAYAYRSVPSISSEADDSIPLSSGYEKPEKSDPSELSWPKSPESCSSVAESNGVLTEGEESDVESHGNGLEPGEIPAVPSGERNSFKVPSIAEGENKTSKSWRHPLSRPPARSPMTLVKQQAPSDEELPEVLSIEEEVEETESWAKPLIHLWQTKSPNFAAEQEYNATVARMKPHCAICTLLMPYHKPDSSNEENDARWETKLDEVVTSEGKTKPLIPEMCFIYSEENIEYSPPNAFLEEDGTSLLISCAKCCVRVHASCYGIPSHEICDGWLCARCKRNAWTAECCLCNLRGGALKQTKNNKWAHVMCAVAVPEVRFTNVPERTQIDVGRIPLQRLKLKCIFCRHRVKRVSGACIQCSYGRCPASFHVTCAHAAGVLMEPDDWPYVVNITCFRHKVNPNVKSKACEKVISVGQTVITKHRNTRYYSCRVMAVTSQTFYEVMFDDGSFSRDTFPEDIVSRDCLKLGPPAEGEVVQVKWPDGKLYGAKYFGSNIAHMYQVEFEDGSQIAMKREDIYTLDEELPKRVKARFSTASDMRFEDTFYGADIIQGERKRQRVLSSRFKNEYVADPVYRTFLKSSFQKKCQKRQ

With `CC(C)(CO)NC(=O)c1ccc2nc(Cc3cccc(Cl)c3)oc2c1`, the AC50 with A-375 [1] and with A-375 [2] was > 35 µM (active) throughout.

Consider `Nc1nc2ccccc2n1S(=O)(=O)c1ccc(F)cc1`, for which the IC50 in [3] was 4.31 µM (active); at Tumor necrosis factor it was > 20 µM (inactive); in the assay on HEK293 [4], > 20 µM (inactive); in assay [5], > 20 µM (inactive).

For `COc1cc(/C=C2\CCC/C(=C\c3ccc(O)c(OC)c3)C2=O)ccc1O` [CYCLOVALONE], the EC50 in the assay on HEK293 [6] is 4.94 µM (active); in [9] it was 9.95 µM (active). Besides, the IC50 in the assay on HEK293 [7] is 3.6 µM (active); with HEK293 [8] it was > 20 µM (inactive); in the assay with HEK293 [10], 3.75 µM (active); in the assay on HEK293 [11] it was > 20 µM (inactive); at Nonstructural protein 1 it was > 100 µM (active).

Turning to `CCOc1ccc(NC(=O)CSc2nnc(-c3ccccc3)n2N)cc1`, the AC50 in [12] was 12.1 µM (active).

Consider `O=C(Nc1ccc2nc3n(c(=O)c2c1)CCCC3)c1cc([N+](=O)[O-])ccc1F`, for which the CC50 in assay [13] is 15.1 µM (active). For the same compound, the AC50 in assay [14] was 11.5 µM (active); in the assay with A-375 [1], > 35 µM (active); in the assay on A-375 [2], > 35 µM (active); in [15] it was 0.361 µM (active); in [16] it was 39.2 µM (active); in assay [17], 21.8 µM (active).

`Cc1cccc(NC(=O)CSCC(=O)Nc2cc(C(F)(F)F)ccc2N2CCOCC2)c1`: the EC50 with HEK293 [18] and with HEK293 [19] was > 59.6 µM (inactive) each time.

The values above are taken from ChEMBL document CHEMBL1201862, “PubChem BioAssay data set” (2004).
